From patent publication US12428423B2, “1H-imidazo[4,5-h]quinazoline compound as protein kinase inhibitor” (SHENGKE PHARMACEUTICALS (JIANGSU) LTD., priority 2017, dated 2025)

Columns and labels:
[1] = test system: neointimal formation; settings: rats; cited from earlier work
[2] = target: CDK6/cyclin D1 (Homo sapiens (Human), UniProt Q00534); assay: Biochemical kinase inhibitory assay, CDK6/cyclin D1; settings: in the presence of 10 μM ATP
Experimental: Potency determination in the biochemical kinase inhibitory assay. Kinase activity assay and IC50 determination. […] The kinase reaction was initiated by the addition of 1 μg (1.5 μM) of recombinant retinoblastoma protein, 5 μM ATP and 10μ Ci γ-32P-ATP. The reaction was incubated at 30° C. for 20 minutes, and the reaction was stopped by the addition of 2× Laemmli sample buffer, heated at 95° C. for three minutes, and dissolved in 12% acrylamide SDS-PAGE for autoradiography. The corresponding phosphorylated substrate protein bands were quantified using a densitometer (Bio-Rad). […] The compounds disclosed herein were tested in a similar manner for their inhibitory activities against CDK6/cyclin D1, CDK2/cyclin A, CDK5/cyclin P25, CDK9/cyclin Ti, CDK7/cyclin H and CDK19/cyclin C. […] The reaction took place in the presence of 10 μM ATP.

[3] = target: CDK4/cyclin D1 (Homo sapiens (Human), UniProt P11802); assay: Biochemical kinase inhibitory assay, CDK4/cyclin D1; settings: recombinant CDK4/cyclin D1; in the presence of 10 μM ATP
Sequence of CDK4/cyclin D1 (P11802 whole entry): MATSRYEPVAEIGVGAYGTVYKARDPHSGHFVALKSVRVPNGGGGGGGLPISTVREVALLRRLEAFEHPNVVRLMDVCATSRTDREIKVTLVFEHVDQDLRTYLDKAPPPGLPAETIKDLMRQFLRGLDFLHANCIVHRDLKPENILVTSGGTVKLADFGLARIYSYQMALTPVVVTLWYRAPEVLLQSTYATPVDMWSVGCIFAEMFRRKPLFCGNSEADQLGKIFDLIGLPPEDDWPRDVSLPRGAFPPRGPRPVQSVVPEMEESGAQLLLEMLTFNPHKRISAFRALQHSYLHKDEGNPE
Sequence of CDK4/cyclin D1 (P24385 whole entry partner): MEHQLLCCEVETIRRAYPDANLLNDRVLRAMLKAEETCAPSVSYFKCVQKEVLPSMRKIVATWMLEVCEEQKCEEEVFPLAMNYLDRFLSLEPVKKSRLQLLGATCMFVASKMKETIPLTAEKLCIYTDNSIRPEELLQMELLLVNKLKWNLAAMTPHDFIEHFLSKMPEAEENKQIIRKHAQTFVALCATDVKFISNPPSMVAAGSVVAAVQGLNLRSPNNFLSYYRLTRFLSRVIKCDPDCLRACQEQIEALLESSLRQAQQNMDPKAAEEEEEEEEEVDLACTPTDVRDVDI
Experimental: Potency determination in the biochemical kinase inhibitory assay. Kinase activity assay and IC50 determination. […] The kinase reaction was initiated by the addition of 1 μg (1.5 μM) of recombinant retinoblastoma protein, 5 μM ATP and 10μ Ci γ-32P-ATP. The reaction was incubated at 30° C. for 20 minutes, and the reaction was stopped by the addition of 2× Laemmli sample buffer, heated at 95° C. for three minutes, and dissolved in 12% acrylamide SDS-PAGE for autoradiography. The corresponding phosphorylated substrate protein bands were quantified using a densitometer (Bio-Rad). […] The reaction took place in the presence of 10 μM ATP.

Sequence of CDK6/cyclin D1 (Q00534 whole entry): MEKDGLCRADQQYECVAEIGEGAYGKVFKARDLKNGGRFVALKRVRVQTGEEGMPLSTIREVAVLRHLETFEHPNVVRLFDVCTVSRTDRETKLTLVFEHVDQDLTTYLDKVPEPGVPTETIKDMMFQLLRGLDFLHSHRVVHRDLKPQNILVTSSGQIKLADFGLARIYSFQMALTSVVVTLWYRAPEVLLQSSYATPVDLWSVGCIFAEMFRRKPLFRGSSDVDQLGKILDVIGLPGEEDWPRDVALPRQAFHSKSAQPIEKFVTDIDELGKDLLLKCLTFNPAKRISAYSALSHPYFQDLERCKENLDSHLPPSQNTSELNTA
Sequence of CDK6/cyclin D1 (P24385 whole entry partner): as the sequence (P24385 whole entry partner) above

| IC50 [2] [nM] | IC50 [3] [nM] | Compound | inhibition of neointimal formation [1] |
| --- | --- | --- | --- |
|  |  | COc1ccc(CNc2nc(N(CCO)CCO)nc3c2ncn3C(C)C)cc1 [CVT-313] | more than 80% |
| 2 to 10 | 2 to 10 | Cc1cc(Nc2ncc3ccc4ncn(C5CCCC5)c4c3n2)ncc1N1CCOCC1 [Compound I-61] |  |
| 50 to 100 | 50 to 100 | Cc1cc2ncn(C(C)C)c2c2nc(Nc3ccc(N4CCNCC4)cn3)ncc12 [Compound I-62] |  |
| 50 to 100 | 50 to 100 | Cc1cc(Nc2ncc3c(C)cc4ncn(C(C)C)c4c3n2)ncc1N1CCNCC1 [Compound I-63] |  |
| 50 to 100 | 50 to 100 | Cc1nc(Nc2ncc3c(C)cc4ncn(C(C)C)c4c3n2)ccc1N1CCNCC1 [Compound I-64] |  |
| 50 to 100 | 50 to 100 | Cc1cc2ncn(C(C)C)c2c2nc(Nc3ccc(N4CCOCC4)cn3)ncc12 [Compound I-65] |  |
| 50 to 100 | 50 to 100 | Cc1cc2ncn(C(C)C)c2c2nc(Nc3ccc(N4CCOC(C)C4)cn3)ncc12 (stereo not drawn) [Compound I-66] |  |
| 2 to 10 | 2 to 10 | CC(C)n1cnc2c(Br)cc3cnc(Nc4ccc(N5CCNCC5)cn4)nc3c21 [Compound I-67] |  |
| 2 to 10 | 2 to 10 | Cc1cc(Nc2ncc3cc(Br)c4ncn(C(C)C)c4c3n2)ncc1N1CCNCC1 [Compound I-68] |  |
| 2 to 10 | 2 to 10 | Cc1nc(Nc2ncc3cc(Br)c4ncn(C(C)C)c4c3n2)ccc1N1CCNCC1 [Compound I-69] |  |
| 2 to 10 | 2 to 10 | CC(C)n1cnc2c(Br)cc3cnc(Nc4ccc(N5CCOCC5)cn4)nc3c21 [Compound I-70] |  |
| 10 to 50 | 10 to 50 | CC(C)n1cnc2c(Br)cc3cnc(Nc4ccc(N5CCC6(CC5)CNC6)cn4)nc3c21 [Compound I-71] |  |
| 2 to 10 | 2 to 10 | Cc1cc2cnc(Nc3ccc(N4CCNCC4)cn3)nc2c2c1ncn2C(C)C [Compound I-72] |  |
| 2 to 10 | 2 to 10 | Cc1cc(Nc2ncc3cc(C)c4ncn(C(C)C)c4c3n2)ncc1N1CCNCC1 [Compound I-73] |  |
| 2 to 10 | 2 to 10 | Cc1nc(Nc2ncc3cc(C)c4ncn(C(C)C)c4c3n2)ccc1N1CCNCC1 [Compound I-74] |  |
| 2 to 10 | 2 to 10 | Cc1cc2cnc(Nc3ccc(N4CCOCC4)cn3)nc2c2c1ncn2C(C)C [Compound I-75] |  |
| 10 to 50 | 10 to 50 | Cc1cc(Nc2ncc3cc(C)c4ncn(C(C)C)c4c3n2)ncc1N1CCOCC1 [Compound I-76] |  |
